The target in experiment [1] is T1, Recombinant (1-346) HPK1 (h) (Homo sapiens, UniProt Q92918).
T1 construct: Recombinant (1-346) HPK1 (h) is incubated with 8 mM MOPS pH 7.0
T1 sequence (Q92918 1-346): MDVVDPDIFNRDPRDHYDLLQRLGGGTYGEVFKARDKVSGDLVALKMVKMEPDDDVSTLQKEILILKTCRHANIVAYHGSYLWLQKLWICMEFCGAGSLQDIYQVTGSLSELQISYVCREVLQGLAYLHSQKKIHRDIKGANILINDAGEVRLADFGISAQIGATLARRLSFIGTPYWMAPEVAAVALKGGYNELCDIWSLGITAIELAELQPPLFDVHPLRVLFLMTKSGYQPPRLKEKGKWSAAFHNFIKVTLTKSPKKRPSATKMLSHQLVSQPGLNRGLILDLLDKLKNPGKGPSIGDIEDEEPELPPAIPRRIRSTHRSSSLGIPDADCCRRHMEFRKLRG
Nature of the experiment: HPK1 Human STE Kinase Enzymatic Radiometric Assay. Type of experiment: biochemical. Particulars: read-out: HPK1 IC50 nM Range*. How it is done:
A stock solution of 10 mM of test compound is prepared in DMSO. The compound plate was prepared by 3-fold and 9-point serial dilutions. […] The reaction is initiated by The addition of the Mg/ATP mix. After incubation for 40 minutes at RT, the reaction is stopped by the addition of phosphoric acid to a concentration of 0.5%.

Another experiment concerns the target Lck (h) (Homo sapiens, UniProt P06239). The experiment is described as follows: Lck Human  Kinase Enzymatic Radiometric Assay. Type of experiment: biochemical. Conditions: read-out: Lck IC50 nM Range*. The method in brief:
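Substrate 33P-incorporation measured by scintillation counting after spotting on P30 filtermat and phosphoric acid washes. Human Lck reacted 40 min at RT in 50 mM Tris pH 7.5 with 10 mM MgAcetate, [gamma-33P]-ATP, 250 uM Cdc2 peptide, 0.1 mM EGTA and 0.1 mM Na3VO4.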

Sequence of Lck (h) (P06239 whole entry): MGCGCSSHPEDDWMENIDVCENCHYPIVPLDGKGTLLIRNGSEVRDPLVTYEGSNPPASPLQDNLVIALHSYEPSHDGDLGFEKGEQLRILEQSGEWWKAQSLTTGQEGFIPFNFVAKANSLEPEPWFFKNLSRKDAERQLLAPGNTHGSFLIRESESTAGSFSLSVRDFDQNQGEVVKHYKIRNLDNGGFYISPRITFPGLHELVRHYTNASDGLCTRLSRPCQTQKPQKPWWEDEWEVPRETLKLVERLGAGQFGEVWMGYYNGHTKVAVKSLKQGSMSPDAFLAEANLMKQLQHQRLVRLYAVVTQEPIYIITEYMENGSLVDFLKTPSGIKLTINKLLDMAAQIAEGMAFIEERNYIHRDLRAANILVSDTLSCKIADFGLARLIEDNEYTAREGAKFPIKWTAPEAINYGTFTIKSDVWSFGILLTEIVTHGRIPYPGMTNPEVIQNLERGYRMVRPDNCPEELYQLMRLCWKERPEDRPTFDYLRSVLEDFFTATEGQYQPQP

Consider `Nc1nc(F)c(-c2ccc(S(=O)(=O)C3CCNCC3)cc2)cc1-c1ccc2c(c1)CCNC2=O` [I-128, 6-(2-amino-6-fluoro-5-(4-(piperidin-4-ylsulfonyl)phenyl)pyridin-3-yl)-3,4-dihydroisoquinolin-1(2H)-one], for which the figures for the half-inhibitory concentration (IC50) (in experiment [1]; at Lck (h)) were 11 to 100 nM and more than 1000 nM, respectively.
Regarding `CN(C)CCN(C)c1ccc(-c2cc(-c3ccc4c(c3)CCNC4=O)c(N)nc2F)cc1` [I-45, 6-(2-amino-5-(4-((2-(dimethylamino)ethyl)(methyl)amino)phenyl)-6-fluoropyridin-3-yl)-3,4-dihydroisoquinolin-1(2H)-one], the IC50 is 0.1 to 10 nM in experiment [1] and more than 1000 nM at Lck (h).
With `CC(C)N1CCN(c2ccc(-c3cc(-c4cc5c(cn4)C(=O)NCC5)c(N)nc3F)cc2)CC1` [I-398, 6-(2-amino-6-fluoro-5-(4-(4-isopropylpiperazin-1-yl)phenyl)pyridin-3-yl)-3,4-dihydro-2,7-naphthyridin-1(2H)-one], the values for the IC50 (in experiment [1]; at Lck (h)) were 0.1 to 10 nM and 101 to 1000 nM, respectively.
Taken in the same sequence, the figures for `CN(C)Cc1cc(-c2cc(-c3ccc4c(c3)CCNC4=O)c(N)nc2F)ccc1N1CCN(C2CCCC2)CC1` [I-451, 6-(2-amino-5-(4-(4-cyclopentylpiperazin-1-yl)-3-((dimethylamino)methyl)phenyl)-6-fluoropyridin-3-yl)-3,4-dihydroisoquinolin-1(2H)-one] were 0.1 to 10 nM and more than 1000 nM.
The corresponding values for `Nc1nc(F)c(-c2ccc(C3CCCCN3CC(F)(F)F)cc2)cc1-c1ccc2c(c1)CCNC2=O` (centres unmarked) [I-93, 6-(2-amino-6-fluoro-5-(4-(1-(2,2,2-trifluoroethyl)piperidin-2-yl)phenyl)pyridin-3-yl)-3,4-dihydroisoquinolin-1(2H)-one] are 11 to 100 nM and more than 1000 nM.
Taken in the same sequence, the figures for `Nc1nc(F)c(-c2ccc(OC3CNC3)cc2)cc1-c1cc2c(cc1F)C(=O)NCC2` [I-339, 6-(2-amino-5-(4-(azetidin-3-yloxy)phenyl)-6-fluoropyridin-3-yl)-7-fluoro-3,4-dihydroisoquinolin-1(2H)-one 2,2,2-trifluoroacetate] were 11 to 100 nM and more than 1000 nM.
Turning to `CCN1CCN(c2ccc(-c3cc(-c4ccc5c(c4)CCCNC5=O)c(N)nc3F)cc2)CC1` [I-67, 7-(2-amino-5-(4-(4-ethylpiperazin-1-yl)phenyl)-6-fluoropyridin-3-yl)-2,3,4,5-tetrahydro-1H-benzo[c]azepin-1-one], the IC50 was 11 to 100 nM in experiment [1] and more than 1000 nM on Lck (h).
Taken in the same sequence, the figures for `CC(C)N1CCN(Cc2cccc(-c3cc(-c4ccc5c(c4)CCNC5=O)c(N)nc3F)c2)CC1` [I-330, 6-(2-amino-6-fluoro-5-(3-((4-isopropylpiperazin-1-yl)methyl)phenyl)pyridin-3-yl)-3,4-dihydroisoquinolin-1(2H)-one] were 11 to 100 nM and more than 1000 nM.
For the compound `CC(C)N1CCC(c2ccc(-c3cc(-c4cc5c(cc4F)C(=O)NCC5)c(N)nc3F)cc2)CC1` [I-244, 6-(2-amino-6-fluoro-5-(4-(1-isopropylpiperidin-4-yl)phenyl)pyridin-3-yl)-7-fluoro-3,4-dihydroisoquinolin-1(2H)-one], the half-inhibitory concentration (IC50) in experiment [1] is 0.1 to 10 nM; on Lck (h), more than 1000 nM.
The corresponding values for `Cc1c[nH]c(=O)c2ccc(-c3cc(-c4ccc(N5CCN(CC6CC6)CC5)cc4)c(F)nc3N)cc12` [I-457, 6-(2-amino-5-(4-(4-(cyclopropylmethyl)piperazin-1-yl)phenyl)-6-fluoropyridin-3-yl)-4-methylisoquinolin-1(2H)-one] are 0.1 to 10 nM and more than 1000 nM.
The corresponding values for `CC(C)N1CCCN(c2ccc(-c3cc(-c4ccc5c(c4)CCNC5=O)c(N)nc3F)cc2)CC1` [I-279, 6-(2-amino-6-fluoro-5-(4-(4-isopropyl-1,4-diazepan-1-yl)phenyl)pyridin-3-yl)-3,4-dihydroisoquinolin-1(2H)-one] are 0.1 to 10 nM and more than 1000 nM.
Consider `Nc1nc(F)c(-c2ccc3c(c2)COC2(CCN(CC(F)(F)F)CC2)O3)cc1-c1ccc2c(c1)CCNC2=O` [I-195, 6-(2-amino-6-fluoro-5-(1′-(2,2,2-trifluoroethyl)-4H-spiro[benzo[d][1,3]dioxine-2,4′-piperidin]-6-yl)pyridin-3-yl)-3,4-dihydroisoquinolin-1(2H)-one], for which the IC50 in experiment [1] is 11 to 100 nM; on Lck (h), more than 1000 nM.
Consider `COCCN1CC=C(c2ccc(-c3cc(-c4ccc5c(c4)CCNC5=O)c(N)nc3F)cc2)C1` [I-124, 6-(2-amino-6-fluoro-5-(4-(1-(2-methoxyethyl)-2,5-dihydro-1H-pyrrol-3-yl)phenyl)pyridin-3-yl)-3,4-dihydroisoquinolin-1(2H)-one], for which the concentration for half-maximal inhibition (IC50) was 0.1 to 10 nM in experiment [1] and more than 1000 nM on Lck (h).
On to `CC(=O)N1CCC2(CCc3cc(-c4cc(-c5ccc6c(c5)CCNC6=O)c(N)nc4F)ccc3O2)CC1` [I-193, 6-(5-(1′-acetylspiro[chromane-2,4′-piperidin]-6-yl)-2-amino-6-fluoropyridin-3-yl)-3,4-dihydroisoquinolin-1(2H)-one], for which the IC50 in experiment [1] is 0.1 to 10 nM; on Lck (h), more than 1000 nM.
Taken in the same sequence, the figures for `Nc1nc(F)c(-c2ccc(N3CCSCC3)cc2)cc1-c1cc2c(cc1F)C(=O)NCC2` [I-347, 6-(2-amino-6-fluoro-5-(4-thiomorpholinophenyl)pyridin-3-yl)-7-fluoro-3,4-dihydroisoquinolin-1(2H)-one] were 0.1 to 10 nM and more than 1000 nM.
Regarding `CC(C)N1C[C@@H]2C[C@]2(c2ccc(-c3cc(-c4cc5c(cc4F)C(=O)NCC5)c(N)nc3F)cc2)C1` [I-142, 6-(2-amino-6-fluoro-5-(4-((1S,5R)-3-isopropyl-3-azabicyclo[3.1.0]hexan-1-yl)phenyl)pyridin-3-yl)-7-fluoro-3,4-dihydroisoquinolin-1(2H)-one], the values for the IC50 (in experiment [1]; at Lck (h)) were 0.1 to 10 nM and more than 1000 nM, respectively.
The corresponding values for `Nc1nc(F)c(-c2ccc(N3CCN(CC(F)(F)F)CC3)c(C(F)(F)F)c2)cc1-c1ccc2c(c1)CCNC2=O` [I-202, 6-(2-amino-6-fluoro-5-(4-(4-(2,2,2-trifluoroethyl)piperazin-1-yl)-3-(trifluoromethyl)phenyl)pyridin-3-yl)-3,4-dihydroisoquinolin-1(2H)-one] are 11 to 100 nM and more than 1000 nM.
Taken in the same sequence, the figures for `Cc1c[nH]c(=O)c2ccc(-c3cc(-c4ccc(N5CCN(C(C)C)CC5)cc4)c(F)nc3N)cc12` [I-378, 6-(2-amino-6-fluoro-5-(4-(4-isopropylpiperazin-1-yl)phenyl)pyridin-3-yl)-4-methylisoquinolin-1(2H)-one] were 0.1 to 10 nM and more than 1000 nM.
In the case of `COCCN1CCN(Cc2cccc(-c3cc(-c4ccc5c(c4)CCNC5=O)c(N)nc3F)c2)CC1` [I-329, 6-(2-amino-6-fluoro-5-(3-((4-(2-methoxyethyl)piperazin-1-yl)methyl)phenyl)pyridin-3-yl)-3,4-dihydroisoquinolin-1(2H)-one], the IC50 in experiment [1] was 101 to 1000 nM; on Lck (h), more than 1000 nM.
Consider `CCN1CCN(c2ccc(-c3cc(-c4cc(F)c5c(=O)[nH]ccc5c4)c(N)nc3F)cc2)CC1` [I-394, 6-(2-amino-5-(4-(4-ethylpiperazin-1-yl)phenyl)-6-fluoropyridin-3-yl)-8-fluoroisoquinolin-1(2H)-one], for which the half-inhibitory concentration (IC50) in experiment [1] fell in the range of 0.1 to 10 nM; at Lck (h), 101 to 1000 nM.
Taken in the same sequence, the figures for `Nc1nc(F)c(-c2ccc(C3CCCN(CCO)C3)cc2)cc1-c1ccc2c(c1)CCNC2=O` (centres unmarked) [I-82, 6-(2-amino-6-fluoro-5-(4-(1-(2-hydroxyethyl)piperidin-3-yl)phenyl)pyridin-3-yl)-3,4-dihydroisoquinolin-1(2H)-one] were 0.1 to 10 nM and more than 1000 nM.
The corresponding values for `CC(C)N1CCN(c2ccc(-c3cc(-c4cc5c(cc4F)C(=O)NCC5)c(N)nc3F)cn2)CC1` [I-226, 6-(6-amino-2-fluoro-6′-(4-isopropylpiperazin-1-yl)-[3,3′-bipyridin]-5-yl)-7-fluoro-3,4-dihydroisoquinolin-1(2H)-one] are 0.1 to 10 nM and more than 1000 nM.
The corresponding values for `CCN1CCN(c2ccc(-c3cc(-c4ccc5c(c4)C(C)(C)CNC5=O)c(N)nc3F)cc2)CC1` [I-69, 6-(2-amino-5-(4-(4-ethylpiperazin-1-yl)phenyl)-6-fluoropyridin-3-yl)-4,4-dimethyl-3,4-dihydroisoquinolin-1(2H)-one] are 0.1 to 10 nM and 101 to 1000 nM.
As to `Cc1cc2cc(-c3cc(-c4ccc(N5CCN(C(C)C)CC5)cc4)c(F)nc3N)ccc2c(=O)[nH]1` [I-377, 6-(2-amino-6-fluoro-5-(4-(4-isoporpylpiperazin-1-yl)phenyl)pyridin-3-yl)-3-methylisoquinolin-1(2H)-one], the values for the IC50 (in experiment [1]; at Lck (h)) were 0.1 to 10 nM and 101 to 1000 nM, respectively.
The corresponding values for `Nc1nc(F)c(-c2ccc(C3=CCNCC3)cc2)cc1-c1ccc2c(c1)CCNC2=O` [I-57, 6-(2-amino-6-fluoro-5-(4-(1,2,3,6-tetrahydropyridin-4-yl)phenyl)pyridin-3-yl)-3,4-dihydroisoquinolin-1(2H)-one 2,2,2-trifluoroacetate] are 0.1 to 10 nM and more than 1000 nM.

For orientation: IC50 means the point on the concentration scale where inhibition reaches its midpoint.

(Values after patent publication US20240343704A1, “HALO-SUBSTITUTED AMINO PYRIDINE COMPOUNDS AS INHIBITORS OF THE HAEMATOPOIETIC PROGENITOR KINASE 1 (HPK1)” (priority 2021, published 2024).)
